# Assay results from patent publication US6403647B1, “Pulsed administration of compositions for the treatment of blood disorders” (priority 1996, dated 2002).
# Entries after “also recorded” stand apart in the source; their conditions may differ.
# Tests used:
# [1] = tested on: system A transport of amino acids; assay: Uptake of 3H-methyl-aminoisobutyric acid (MeAIB) into erythroblasts; assay type: cell-based
# Description: Erythroblasts were tested for alterations in uptake of radio-labelled amino acid (^3H-methyl-aminoisobutyric acid; MeAIB) in the presence of AB (arginine butyrate), AMHCA (α-methylhydrocinnamic acid), PAA (phenoxyacetic acid), and IBT (isobutyramide), each at 2.0 mM.
# Half-life = conditions: in vivo
# [2] = Continuous 24 hour per day infusions in sickle cell disease and beta thalassemia patients; assay type: in vivo, human
# Description: Continuous 24 hour per day infusions of was administered in another study to 10 patients with sickle cell disease and beta thalassemia and produced rises in fetal globin in a lower proportion of patients, 40%. Many of these responses were not sustained.
# Therefore, the same infusion rate given for 24 hours/day results in a lower response rate than does 8-16 hour/day treatment at the same infusion rate. A lower proportions of patients respond hematologically with continuous 24 hours therapy (1/10 patients) than respond to intermittent pulse therapy 8/10 patients. Hematologic responses are higher with pulse therapy (2-5) gram/dl above baseline levels compared to no responses in patients treated with 24 hour therapy.
# [3] = Weekly versus pulse butyrate therapy in sickle cell and beta thalassemia patients; assay type: in vivo, human; design: F-retics On / F-cells On: unit not given here
# Description: To determine if arginine butyrate can be used for therapeutic benefit, two low-dose regimens of butyrate were studied. Treatment were given intermittently either weekly, or in a pulse fashion, at 2-3 week intervals. […]
# Patients were treated by pulse therapy for 4-18 months with arginine butyrate. […] It is preferred to avoid prolonged treatment with high doses of butyrate, which cause cellular growth arrest in G1, and can enhance the accelerated apoptosis of beta thalassemia. Partial tolerance observed with long-term weekly therapy appears related to erythroid cell growth arrest and a decline in EPO levels as Hgb and Hct rise and depletion of available iron stores. Treatment with additional doses of iron supplements can overcome some of the anti-proliferative activities of butyrate in vitro. Time required on therapy has been only 25%-35% of the treatment days per month necessary for effective transfusion and iron chelation. This has improved the quality of life of some patients.
# To determine if these potentially opposing actions can be balanced for therapeutic effect, two intermittent schedules of butyrate were compared in 21 treatment courses in 14 patients ages 3 to 55 years, with sickle cell disease or β thalassemia. An optimal dose was identified on an individual patient regimen and continued on a weekly basis in eleven patients. Providing 7 to 14 days without any drug exposure to facilitate proliferation of treated cells, an alternate week regimen or pulse therapy, was administered to twelve patients (see Tables V, VI and VI).
# A series of ten patients with sickle cell anemia and β-thalassemia were treated with continuous therapy with arginine butyrate. In 3 out of 4, transfusion requirement was diminished. […] The mean peak in total HgB which was detectable in the ten patients over their baseline was 1.6 gm/dl.
# Patients were next administered a pulse therapy regimen. Each session comprised eight to twelve hours of nightly infusions. […] Total increases in Hgb were sustained as high as 3.0 g/dl above baseline levels with a mean increase of 2.1 g/dl in 8 out of 12 patients (p<0.05, paired t-test, chi square).
# [4] = pulse therapy, 4/6 severe thalassemia patients
# [5] = weekly therapy, patient Hb SS, 24 weeks
# [6] = weekly therapy, patient HbSS, 4 weeks
# [7] = weekly therapy, patient frameshift 5, 5 weeks
# [8] = weekly therapy, patient β-39,-39, 8 weeks
# [9] = weekly therapy, patient βIVS I, 1-6, 40 weeks
substance,measurement,setting,value
arginine butyrate,amino acid (MeAIB) uptake / transport,"[1]; 2.0 mM, relative to untreated fetal liver erythroid cells",inhibited amino acid uptake
same,inhibition of MeAIB uptake,[1]; after 60 and 120 minutes,most significant
same,half-life,Half-life,15 min
same,proportion of patients with rises in fetal globin,"[2]; continuous 24 hour per day infusions, 10 patients",40%
same,patients responding hematologically,[2]; continuous 24 hours therapy,1/10
same,fetal hemoglobin levels,"[3]; 4 days, infusions about 8 hours per day, followed by 7 days of no treatment",rise substantially
same,patients with diminished transfusion requirement,[3]; continuous therapy,3 out of 4
same,mean peak in total HgB over baseline,"[3]; continuous therapy, ten patients",1.6 gm/dl
same,patients responding hematologically,[3]; intermittent pulse therapy,8/10
same,transfusion-dependency,"[3]; pulse regimen, thalassemia major",eliminated previous transfusion-dependency; also recorded: Transfusion-dependency was eliminated
same,hematologic responses above baseline levels,[3]; pulse therapy,2-5 gram/dl
same,patients with fetal globin genes reactivated to a hematologically compensating degree,[3]; pulse therapy for 4-18 months,8 out of 12
same,"total increases in Hgb above baseline, sustained",[3]; pulse therapy regimen,≤ 3.0 g/dL
same,mean increase in Hgb above baseline,"[3]; pulse therapy regimen, 8 out of 12 patients",2.1 g/dL
same,increase in total Hb levels,[3]; [4],2-3 grams/dl
same,total Hb level reached,[3]; [4],> 9.0 gm/dl
same,Hb F reached,"[3]; pulse therapy, patient",29%
same,Increase in Total Hgb,"[3]; pulse therapy, patient HbE/?, 15 weeks",1.7 g/dL
same,Non-∀/∀* On (non-α: α globin chain synthesis ratios),"[3]; pulse therapy, patient HbE/?, 15 weeks, Base 0.17",0.25
same,F-cells On,"[3]; pulse therapy, patient HbE/?, 15 weeks, Base 79",84
same,Percent HbF On,"[3]; pulse therapy, patient HbSS, 7 weeks, Base 0.5",1.5%
same,F-retics On,"[3]; pulse therapy, patient HbSS, 7 weeks, Base 8",9.3
same,F-cells On,"[3]; pulse therapy, patient HbSS, 7 weeks, Base 11",8
same,Percent HbF On,"[3]; pulse therapy, patient HbSS, 9 weeks, Base 0.5",1.0%
same,F-retics On,"[3]; pulse therapy, patient HbSS, 9 weeks, Base 0.7",6.7
same,F-cells On,"[3]; pulse therapy, patient HbSS, 9 weeks, Base 15",0.5
same,Increase Total Hgb,"[3]; pulse therapy, patient HbSS, 11 weeks",+1.0 g/dl
same,Percent HbF On,"[3]; pulse therapy, patient HbSS, 11 weeks, Base 3",24%
same,F-retics On,"[3]; pulse therapy, patient HbSS, 11 weeks, Base 18",25
same,F-cells On,"[3]; pulse therapy, patient HbSS, 11 weeks, Base 28",58
same,Increase Total Hgb,"[3]; pulse therapy, patient HbSS, 15 weeks",+2.0 g/dl
same,Percent HbF On,"[3]; pulse therapy, patient HbSS, 15 weeks, Base 6.9",22%
same,F-retics On,"[3]; pulse therapy, patient HbSS, 15 weeks, Base 12.6",24
same,F-cells On,"[3]; pulse therapy, patient HbSS, 15 weeks, Base 23",59
same,Increase Total Hgb,"[3]; pulse therapy, patient HbSS, 18 weeks",+2.0 g/dl
same,Percent HbF On,"[3]; pulse therapy, patient HbSS, 18 weeks, Base 8",35%
same,F-retics On,"[3]; pulse therapy, patient HbSS, 18 weeks, Base 35",46
same,F-cells On,"[3]; pulse therapy, patient HbSS, 18 weeks, Base 50",65
same,Increase Total Hgb,"[3]; pulse therapy, patient HbSS, 28 weeks",+1.0 g/dl
same,Percent HbF On,"[3]; pulse therapy, patient HbSS, 28 weeks, Base 6",29%
same,F-retics On,"[3]; pulse therapy, patient HbSS, 28 weeks, Base 18",36
same,F-cells On,"[3]; pulse therapy, patient HbSS, 28 weeks, Base 42",56
same,Non-∀/∀* On (non-α: α globin chain synthesis ratios),"[3]; pulse therapy, patient frameshift-5, 24 weeks, Base 0.5",0.75
same,F-cells On,"[3]; pulse therapy, patient frameshift-5, 24 weeks, Base 100",100
same,Increase in Total Hgb,"[3]; pulse therapy, patient β-39-87, 68 weeks",3.6 g/dL
same,Non-∀/∀* On (non-α: α globin chain synthesis ratios),"[3]; pulse therapy, patient β-39-87, 68 weeks, Base 0.6",1.1
same,F-cells On,"[3]; pulse therapy, patient β-39-87, 68 weeks, Base 29",100
same,Increase in Total Hgb,"[3]; pulse therapy, patient β-39, 7 weeks",3.0 g/dL
same,Non-∀/∀* On (non-α: α globin chain synthesis ratios),"[3]; pulse therapy, patient β-39, 7 weeks, Base 0.4",0.9
same,F-cells On,"[3]; pulse therapy, patient β-39, 7 weeks, Base 100",100
same,Increase in Total Hgb,"[3]; pulse therapy, patient βIVS I-1, 4 weeks",2.1 g/dL
same,Non-∀/∀* On (non-α: α globin chain synthesis ratios),"[3]; pulse therapy, patient βIVS I-1, 4 weeks, Base 0.5",0.9
same,F-cells On,"[3]; pulse therapy, patient βIVS I-1, 4 weeks, Base 100",100
same,Non-∀/∀* On (non-α: α globin chain synthesis ratios),"[3]; pulse therapy, patient βIVS II, 33 weeks, Base 0.5",0.7
same,F-cells On,"[3]; pulse therapy, patient βIVS II, 33 weeks, Base 10",16
same,patients with desired hematologic responses,"[3]; pulse therapy, sickle cell and beta thalassemia patients",8 of 12
same,adverse side effects,[3]; up to 17 months of home therapy and 350 weeks of patient treatment,No significant adverse side effects
same,Hb F responses,[3]; weekly therapy,4-10%
same,patients with biochemical (Hb F) responses,[3]; weekly therapy,8/10
same,patients with biochemical increases in fetal globin expression,[3]; weekly therapy,8/11
same,"rises in total hemoglobin, mean",[3]; weekly therapy,1.6 gm/dl
same,increases in total Hb above baseline levels,"[3]; weekly therapy, in 6/10",1-4 gram/dl
same,Comments,[3]; [5],response declined
same,Increase in Total Hgb,[3]; [5],+2.0 gm/dl
same,F-retics On,"[3]; weekly therapy, patient Hb SS, 24 weeks, Base 12.7",35.3
same,Comments,"[3]; weekly therapy, patient HbE/?, 9 weeks",transfusions cont.
same,F-retics On,"[3]; weekly therapy, patient HbE/?, 9 weeks, Base 42",52.7
same,Comments,"[3]; weekly therapy, patient HbS, β-39, 6 weeks",transfusions cont.
same,F-retics On,"[3]; weekly therapy, patient HbS, β-39, 6 weeks, Base 4",20
same,Comments,[3]; [6],response declined
same,Increase in Total Hgb,[3]; [6],+1.0 gm/dl
same,F-retics On,"[3]; weekly therapy, patient HbSS, 4 weeks, Base 14",30.7
same,Comments,[3]; [7],response declined
same,Increase in Total Hgb,[3]; [7],+1.0 gm/dl
same,F-retics On,"[3]; weekly therapy, patient frameshift 5, 5 weeks, Base 0.5",1
same,Comments,"[3]; weekly therapy, patient β(-39-39), 8 weeks","AIHA, trans. cont."
same,F-retics On,"[3]; weekly therapy, patient β(-39-39), 8 weeks, Base 60",77
same,Comments,[3]; [8],plateaued
same,Increase in Total Hgb,[3]; [8],1.5 gm/dl
same,F-retics On,"[3]; weekly therapy, patient β-39,-39, 8 weeks, Base 76",68
same,Increase in Total Hgb,"[3]; weekly therapy, patient β-39-87, 16 weeks",+2.3 gm/dl
same,F-retics On,"[3]; weekly therapy, patient β-39-87, 16 weeks, Base 64.7",67.3
same,Comments,[3]; [9],response declined
same,Increase in Total Hgb,[3]; [9],+4.3 gm/dl
same,F-retics On,"[3]; weekly therapy, patient βIVS I, 1-6, 40 weeks, Base 56",75
same,Increase in Total Hgb,"[3]; weekly therapy, patient βIVS II-745, 7 weeks",3 gm/dl
same,F-retics On,"[3]; weekly therapy, patient βIVS II-745, 7 weeks, Base 4",16
same,"rises in total hemoglobin, mean","[3]; weekly therapy, the 6 responsive patient (6/9 treated)",2.4 gm/dl
